Experimental data: patent US20070286822A1, “Compounds for the Treatment of Periodontal Disease” (ANACOR PHARMACEUTICALS INC., priority 2006, published 2007)

Row | Structure (SMILES) | melting point [°C]
1 | Fc1ccc2c(c1)COB2c1ccccc1 [9b, 1,3-Dihydro-5-fluoro-1-phenyl-2,1-benzoxaborole] | 90 to 99
2 | Fc1ccc(B2OCc3ccccc32)cc1 [9e, 1,3-Dihydro-1-(4-fluorophenyl)-2,1-benzoxaborole] | 53 to 55
3 | Fc1ccc2c(c1)COB2c1cccc(Cl)c1 [9f, 1-(3-Chlorophenyl)-1,3-dihydro-5-fluoro-2,1-benzoxaborole] | 112 to 114
4 | Fc1cccc(B2OCc3cc(F)ccc32)c1 [9g, 1,3-Dihydro-5-fluoro-1-(3-fluorophenyl)-2,1-benzoxaborole] | 80 to 82
5 | Fc1ccc(B2OCc3cc(F)ccc32)cc1 [9h, 1,3-Dihydro-5-fluoro-1-(4-fluorophenyl)-2,1-benzoxaborole] | 75 to 77
6 | Cc1cccc(B2OCc3cc(F)ccc32)c1 [9i, 1,3-Dihydro-5-fluoro-1-(3-methylphenyl)-2,1-benzoxaborole] | 48 to 49
7 | Cc1ccc(B2OCc3cc(F)ccc32)cc1 [9j, 1,3-Dihydro-5-fluoro-1-(4-methylphenyl)-2,1-benzoxaborole] | 48 to 49
8 | C(=Cc1ccccc1)B1OCc2ccccc21 [10a, 1,3-Dihydro-1-styryl-2,1-benzoxaborole] | 57 to 59
9 | Fc1ccc2c(c1)COB2C=Cc1ccccc1 [10b, 1,3-Dihydro-5-fluoro-1-styryl-2,1-benzoxaborole] | 84 to 86
10 | COc1ccc2c(c1)COB2O [C7, 5-methoxybenzo[c][1,2]oxaborol-1(3H)-ol] | 102 to 104
11 | Cc1ccc2c(c1)COB2O [C8, 5-methylbenzo[c][1,2]oxaborol-1(3H)-ol] | 124 to 128
12 | OB1OCc2ccc3ccccc3c21 [C11, naphtho[1,2-c][1,2]oxaborol-1(3H)-ol] | 139 to 143
13 | OB1OCc2ccc(F)cc21 [C13, 6-fluorobenzo[c][1,2]oxaborol-1(3H)-ol] | 110 to 117.5
14 | N#Cc1cccc(Oc2ccc3c(c2)B(O)OC3)c1 [C19, 3-(1-hydroxy-1,3-dihydrobenzo[c][1,2]oxaborol-6-yloxy)benzonitrile] | 146 to 149
15 | OB1OCc2ccc(Oc3ccc(Cl)cc3)cc21 [C20, 6-(4-chlorophenoxy)benzo[c][1,2]oxaborol-1(3H)-ol] | 119 to 130
16 | OB1OCc2ccc(Oc3ccccc3)cc21 [C21, 6-phenoxybenzo[c][1,2]oxaborol-1(3H)-ol] | 95 to 99
17 | OB1OCc2ccc(Oc3ccc(OC(F)(F)F)cc3)cc21 [C29, 6-(4-(trifluoromethoxy)phenoxy)benzo[c][1,2]oxaborol-1(3H)-ol] | 97 to 101
18 | CN(c1ccc2c(c1)COB2O)S(=O)(=O)c1ccccc1 [C30, N-(1-hydroxy-1,3-dihydrobenzo[c][1,2]oxaborol-5-yl)-N-methylbenzenesulfonamide] | 85 to 95
19 | COc1ccc(Oc2ccc3c(c2)B(O)OC3)cc1 [C31, 6-(4-methoxyphenoxy)benzo[c][1,2]oxaborol-1(3H)-ol] | 126 to 129

Row | Structure (SMILES) | melting point [°C]
20 | COc1ccc(Sc2ccc3c(c2)B(O)OC3)cc1 [C32, 6-(4-methoxyphenylthio)benzo[c][1,2]oxaborol-1(3H)-ol] | 95 to 100
21 | COc1ccc(S(=O)(=O)c2ccc3c(c2)B(O)OC3)cc1 [C33, 6-(4-methoxyphenylsulfonyl)benzo[c][1,2]oxaborol-1(3H)-ol] | 180 to 192
22 | CCOC(=O)COc1ccc2c(c1)COB2O [C41, Ethyl 2-(1-hydroxy-1,3-dihydrobenzo[c][1,2]oxaborol-5-yloxy)acetate] | 134 to 137
23 | O=C(O)COc1ccc2c(c1)COB2O [C42, 2-(1-hydroxy-1,3-dihydrobenzo[c][1,2]oxaborol-5-yloxy)acetic acid] | 163 to 166
24 | OB1OCc2ccc(Sc3cccs3)cc21 [C43, 6-(thiophen-2-ylthio)benzo[c][1,2]oxaborol-1(3H)-ol] | 99 to 104
25 | OB1OCc2ccc(Sc3ccc(F)cc3)cc21 [C44, 6-(4-fluorophenylthio)benzo[c][1,2]oxaborol-1(3H)-ol] | 135 to 138
26 | CCCCC(=O)c1cccc(COc2ccc3c(c2)COB3O)c1 [C45, 1-(3-((1-hydroxy-1,3-dihydrobenzo[c][1,2]oxaborol-5-yloxy)methyl)phenyl)pentan-1-one] | 96 to 98
27 | O=C(COc1ccc2c(c1)COB2O)N1CCCCC1 [C46, 2-(1-hydroxy-1,3-dihydrobenzo[c][1,2]oxaborol-5-yloxy)-1-(pieridin-1-yl)ethanone] | 158 to 163
28 | O=C(COc1ccc2c(c1)COB2O)N1CCN(c2ncccn2)CC1 [C47, 2-(1-hydroxy-1,3-dihydrobenzo[c][1,2]oxaborol-5-yloxy)-1-(4-(pyrimidin-2-yl)piperazin-1-yl)ethanone] | 190 to 195
29 | OB1OCc2ccc(N3CCN(c4ccccn4)CC3)cc21 [C48, 6-(4-(pyridin-2-yl)piperazin-1-yl)benzo[c][1,2]oxaborol-1(3H)-ol] | 135 to 138
30 | CN(C)c1ccc2c(c1)B(O)OC2 [C51, 6-(dimethylamino)benzo[c][1,2]oxaborol-1(3H)-ol] | 120 to 123
31 | O=C(Nc1ccc2c(c1)B(O)OC2)c1ccccc1 [C52, N-(1-hydroxy-1,3-dihydrobenzo[c][1,2]oxaborol-6-yl)benzamide] | 186 to 193
32 | OB1OCc2ccc(N3CCN(c4ccccc4)CC3)cc21 [C53, 6-(4-phenylpiperazin-1-yl)benzo[c][1,2]oxaborol-1(3H)-ol] | 159 to 161
33 | OB1OCc2ccc(-n3ccc4ccccc43)cc21 [C55, 6-(1H-indol-1-yl)benzo[c][1,2]oxaborol-1(3H)-ol] | 135 to 140
34 | OB1OCc2ccc(N3CCOCC3)cc21 [C56, 6-morpholinobenzo[c][1,2]oxaborol-1(3H)-ol] | 128 to 132
35 | O=[N+]([O-])c1cc2c(cc1F)COB2O [C58, 5-fluoro-6-nitrobenzo[c][1,2]oxaborol-1(3H)-ol] | 162 to 167
36 | OCc1cc2c(cc1Br)COB2O [C59] | > 257
37 | OB1OCc2cc3c(cc21)COB3O [C60, 3,7-dihydro-1,5-dihydroxy-1H,3H-Benzo[1,2-c:4,5-c′]bis[1,2]oxaborole] | > 250
38 | O=S(=O)(Nc1ccc2c(c1)B(O)OC2)c1ccccc1 [C62, N-(1-hydroxy-1,3-dihydrobenzo[c][1,2]oxaborol-6-yl)benzenesulfonamide] | 175 to 184

Row | Structure (SMILES) | melting point [°C]
39 | CC(=O)Nc1ccc2c(c1)B(O)OC2 [C63, N-(1-hydroxy-1,3-dihydrobenzo[c][1,2]oxaborol-6-yl)acetamide] | 176 to 185
40 | OCc1cccc2c1B(O)OC2 [C64, 7-(hydroxymethyl)benzo[c][1,2]oxaborol-1(3H)-ol] | 241 to 250
41 | Cc1cccc2c1B(O)OC2 [C65, 7-methylbenzo[c][1,2]oxaborol-1(3H)-ol] | 107 to 111
42 | OB1OCc2ccc(-n3cc(Sc4ccccc4)c4ccccc43)cc21 [C66, 6-(3-(phenylthio)-1H-indol-1-yl)benzo[c][1,2]oxaborol-1(3H)-ol] | 159 to 163
43 | N#CCCSc1cn(-c2ccc3c(c2)B(O)OC3)c2ccccc12 [C67, 3-(1-(1-hydroxy-1,3-dihydrobenzo[c][1,2]oxaborol-6-yl)-1H-indol-3-ylthio)propanenitrile] | 135 to 141
44 | COc1ccc2c(ccn2-c2ccc3c(c2)B(O)OC3)c1 [C68, 6-(5-methoxy-1H-indol-1-yl)benzo[c][1,2]oxaborol-1(3H)-ol] | 120 to 124
45 | OB1OCc2cc3c(cc21)OCO3 [C69, 5,6-methylenedioxybenzo[c][1,2]oxaborol-1(3H)-ol] | 185 to 189
46 | Nc1cc2c(cc1F)COB2O [C70, 6-amino-5-fluorobenzo[c][1,2]oxaborol-1(3H)-ol] | 142 to 145
47 | OB1OCc2cc(F)c(NCc3ccccc3)cc21 [C71, 6-(benzylamino)-5-fluorobenzo[c][1,2]oxaborol-1(3H)-ol] | 159 to 164
48 | COc1ccc2c(c1)c(Sc1ccccc1)cn2-c1ccc2c(c1)B(O)OC2 [C72, 6-(5-methoxy-3-(phenylthio)-1H-indol-1-yl)benzo[c][1,2]oxaborol-1(3H)-ol] | 135 to 141
49 | COc1ccc2c(c1)c(SCCC#N)cn2-c1ccc2c(c1)B(O)OC2 [C73, 3-(1-(1-hydroxy-1,3-dihydrobenzo[c][1,2]oxaborol-6-yl)-5-methoxy-1H-indol-3-ylthio)propanenitrile] | 149 to 154
50 | N#Cc1ccc(Oc2cccc3c2B(O)OC3)cc1 [C74, 4-(1-hydroxy-1,3-dihydrobenzo[c][1,2]oxaborol-7-yloxy)benzonitrile] | 148 to 153
51 | OB1OCc2ccc(-n3ccc4cc(Cl)ccc43)cc21 [C75, 6-(5-chloro-1H-indol-1-yl)benzo[c][1,2]oxaborol-1(3H)-ol] | 149 to 154
52 | N#CCCSc1cn(-c2ccc3c(c2)B(O)OC3)c2ccc(Cl)cc12 [C76, 3-(5-chloro-1-(1-hydroxy-1,3-dihydrobenzo[c][1,2]oxaborol-6-yl)-1H-indol-3-ylthio)propanenitrile] | > 225
53 | OB1OCc2ccc(NCc3ccccc3)cc21 [C77, 6-(benzylamino)benzo[c][1,2]oxaborol-1(3H)-ol] | 126 to 133
54 | OB1OCc2ccc(N(Cc3ccccc3)Cc3ccccc3)cc21 [C78, 6-(dibenzylamino)benzo[c][1,2]oxaborol-1(3H)-ol] | 115 to 123
55 | OB1OCc2ccc(-n3cc(Sc4ccccc4)c4cc(Cl)ccc43)cc21 [C80, 6-(5-chloro-3-(phenylthio)-1H-indol-1-yl)benzo[c][1,2]oxaborol-1(3H)-ol] | 145 to 151
56 | OB1OCc2cccc(F)c21 [C86, 7-fluorobenzo[c][1,2]oxaborol-1(3H)-ol] | 120 to 124
57 | OB1OCc2ccc(Oc3ccc(C(F)(F)F)cc3)cc21 [C87, 6-(4-(trifluoromethyl)phenoxy)benzo[c][1,2]oxaborol-1(3H)-ol] | 98 to 105
